Experimental data reported in ChEMBL document CHEMBL1125704, “Novel time-dependent inhibitors of human placental aromatase” (J Med Chem, 1991).

Each compound was assayed against T1, Aromatase (Homo sapiens, UniProt P11511) (assay: Inhibition of binding to human Placental Cytochrome P450 19A1).
T1 sequence (P11511 whole entry): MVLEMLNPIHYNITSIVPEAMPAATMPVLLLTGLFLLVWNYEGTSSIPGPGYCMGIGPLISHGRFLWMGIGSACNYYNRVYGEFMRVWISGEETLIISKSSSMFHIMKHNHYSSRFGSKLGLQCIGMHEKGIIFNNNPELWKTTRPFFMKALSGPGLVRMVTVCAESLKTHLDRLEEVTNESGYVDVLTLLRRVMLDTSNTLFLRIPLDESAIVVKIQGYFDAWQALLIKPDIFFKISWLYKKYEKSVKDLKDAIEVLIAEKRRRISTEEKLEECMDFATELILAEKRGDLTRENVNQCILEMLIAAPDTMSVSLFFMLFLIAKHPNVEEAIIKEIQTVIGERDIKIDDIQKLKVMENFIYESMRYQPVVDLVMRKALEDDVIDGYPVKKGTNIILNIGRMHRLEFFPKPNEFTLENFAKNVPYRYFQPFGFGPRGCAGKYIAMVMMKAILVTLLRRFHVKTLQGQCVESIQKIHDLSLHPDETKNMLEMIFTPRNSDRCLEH

Row | Compound | Ki [nM]
1 | C[C@]12CCC3C(CCC4=CC(=O)[C@H]5CC[C@]43C5)C1CCC2=O (some centres undefined) | 70
2 | C[C@]12CCC3C(CCC4=CC(=O)[C@H]5C[C@H](O)[C@]43C5)C1CCC2=O (single isomer, unassigned) | 926
3 | C[C@]12CCC3C(CCC4=CC(=O)[C@H]5C[C@@H](O)[C@]43C5)C1CCC2=O (single isomer, unassigned) | 870
4 | C[C@]12CCC3C(CCC4=CC(=O)CC[C@@]43C(O)CBr)C1CCC2=O (single isomer, unassigned; 11a) | 27
